Assays:
Type in all cases: in vivo, hamster
[1] = tested on: hamsters with cerebellar ataxia; experiment: Rotarod test in hamsters with cerebellar ataxia; conditions: for improving effect on motor coordination (in words): cerebellar ataxia hamsters, agents of Example 1 compared among pentamethine cyanine dye compounds; for Time of falling from rotarod: hamster with cerebellar ataxia, agent of Example 1, 0.5 ml/hamster intraperitoneally once a day for 56 days
Source text: (§1) Since NK-4 was confirmed to have a neurodegenerative inhibitory action in Experiment 1, hamsters with cerebellar ataxia (cerebellar ataxia is called “cerebellar A” and hamsters with cerebellar ataxia are called “hamsters with cerebellar A”, hereinafter) as a suitable model for human neurodegenerative diseases (e.g., spinal cerebellar degeneration) were subjected to examine the influence of NK-4 administration on their behaviors and brain tissues. Twenty-five hamsters with natural mutation (Nna1 inhibition), which are known to lose Purkinje's cells after three-weeks of age and then induce a spontaneous onset of kinetic motor ataxia after seven-weeks of age (see Akita K. et al., “J. Neurogenetics”, Vol. 21, pp. 19-29, 2007), had been fed at Hayashibara Biochemical Laboratories., Inc., Okayama, Japan, were randomly allocated to the test groups 1 to 5, five heads in each group, as shown in Table 2. Prior to the onset of cerebellar A (at three-weeks of age), PBS was started to administer to the hamsters in the test group 1 at a dose of 10 ml/kg/day. Prior to the onset of cerebellar A (at three-weeks of age), NK-4 was started to be administered to the hamsters in the test groups 2 to 4 at a daily dose of 20 μg/kg, 100 μg/kg or 500 μg/kg. “IGF-1, human, a product name of insulin-like growth factor, commercialized by Assaypro LLC, MO, USA. These administered ingredients were intraperitoneally administered daily to hamsters once a day up to 10-weeks of age. The degree of symptom of cerebellar A and the improvement effect on the symptom by NK-4 were evaluated with an index of improvement in motor coordination of hamsters by conducting once a week the later described rotarod test and the slant tolerance test. At the age of 10-weeks, the hamsters were subjected to counting the falling down frequency and extracted their brains, which were then histologically evaluated. In parallel, the concentration of glutamic acid in the bloods and cerebrospinal fluids (CSF) of the hamsters was assayed. As a test group 6, five normal hamsters, with the same age as the hamsters with cerebellar A used in the test groups 1 to 5, were provided and tested similarly as the hamsters with cerebellar A in such a manner of intraperitoneally administering PBS to them at a dose of 10 ml/kg/day once a day up to 10-weeks of age.
As an index for coordinated movement, it was used a duration time of hamster's movement to staying on a rotarod by locomotion in synchronization with the turn of the rotarod; placing a hamster on an apparatus with a rotarod (having a diameter of 60 mm, prepared by Hayashibara Biochemical Laboratories, Inc., Okayama, Japan), turning at a constant rate of six rpm, and measuring the time until the hamster falls down from the rotarod (see Fernandez et al., “Proc. Natl. Acad. Sci. USA”, Vol. 95, pp. 1253-1258, 1998). The test was repeated six times for each hamster, where five-times of tests starting from the initiation of the test were made as a preliminary examination, and the time until each hamster fell down from the rotarod (called “falling time”, hereinafter) was measured, followed by averaging the falling times for each group consisting of five heads. The falling time was measured until 180 seconds. Based on the results, the relationship between the age and the falling time for each hamster with cerebellar A (test group 1) administered with PBS was graphed. […]
Similarly as in Experiment 2, 130 hamsters with cerebellar ataxia, born within the same week and 3-weeks of age, were randomly divided into 13 groups, consisting of 10 hamsters, respectively. […]

[2] = tested on: hamsters with cerebellar ataxia; experiment: Falling down frequency of hamsters with cerebellar ataxia; conditions: hamster with cerebellar ataxia; agent of Example 1, 0.5 ml/hamster intraperitoneally once a day for 56 days
Source text: as §1
Hamsters, 10-weeks of age, were respectively housed in a breeding cage. Their falling down frequencies within one minute were counted under a macroscopic observation and the data from five heads in each group were averaged. For reference, the hamsters with cerebellar A used in this experiment are known to increase their falling down frequencies after nine weeks of age.
(§2) Similarly as in Experiment 2, 130 hamsters with cerebellar ataxia, born within the same week and 3-weeks of age, were randomly divided into 13 groups, consisting of 10 hamsters, respectively. […] The hamsters (10 heads) in the remaining one group were intraperitoneally administered from their age of 3- to 10-weeks with a sterilized 10% maltose solution (pyrogen-free) in an amount of 0.5 ml/hamster (control) once a day for 56 days At the next day after the end of the administration, body weight of each hamster was weighed, followed by performing rotarod test, slope endurance test, and counting of falling down frequency. The types of compounds applied to each group and the results are in Table 25.

[3] = tested on: hamsters with cerebellar ataxia; experiment: Slant tolerance test in hamsters with cerebellar ataxia; conditions: hamster with cerebellar ataxia; agent of Example 1, 0.5 ml/hamster intraperitoneally once a day for 56 days
Source text: as §1
Hamsters were placed on a slope-angle-variable-board while keeping their heads upward, followed by determining the angle for allowing the hamsters to keep staying thereupon for five seconds for use as an endurable-slant-slope-angle test (see Rivlin et al., “J. Neurosurg.”, Vol. 47, pp. 577-581, […]). The initial slope angle was set to 25 degrees and increased by 5 degrees step by step. When a tested hamster in a static condition fell down within five seconds, the slope angle was decreased by one degree step by step, followed by judging the angle that allows the hamster to keep static staying for five seconds, measuring the tolerable slant-slope-angle, and averaging the data for five heads in each group.
as §2

Compound	improving effect on motor coordination (in words) [1]	Time of falling from rotarod [1]	Falling down frequency (count/min) [2]	Endurable-slant-slope-angle (°) [3]
CCCCN1C=C/C(=C/C=C(/C=C/c2cc[n+](CCCC)c3ccccc23)c2cc[n+](CCCC)c3ccccc23)c2ccccc21 [NK-26]	particularly high improving effect on motor coordination	90.0 ± 7.1 s	1.0 ± 0.7 count/min	53.5 ± 1.3 °
CCCCCCCN1C=CC(=CC=C(C=Cc2cc[n+](CCCCCCC)c3ccccc23)c2cc[n+](CCCCCCC)c3ccccc23)c2ccccc21.[I-].[I-] [NK-28]		69.0 ± 28 s	1.3 ± 0.9 count/min	51.4 ± 2.2 °
CCN1/C(=C/C=C(/C=C/c2sc3ccccc3[n+]2CC)c2sc3ccccc3[n+]2CC)Sc2ccccc21.[I-].[I-] [NK-100]		61.9 ± 9.4 s	1.3 ± 0.7 count/min	50.3 ± 1.9 °
CCCCCCCCN1C=CC(=CC=C(C=Cc2cc[n+](CCCCCCCC)c3ccccc23)c2cc[n+](CCCCCCCC)c3ccccc23)c2ccccc21.[I-].[I-] [NK-147]		56.5 ± 9.8 s	1.5 ± 0.8 count/min	49.3 ± 2.1 °
CCCCCCCCCN1C(C)=CS\C1=C/C=C(\C=C\c1scc(C)[n+]1CCCCCCCCC)c1scc(C)[n+]1CCCCCCCCC.[I-].[I-] [NK-393]	particularly high improving effect on motor coordination	86.5 ± 1.8 s	0.9 ± 0.8 count/min	53.1 ± 1.5 °
CN(C)c1ccc(/C=C/c2oc3ccccc3[n+]2C)cc1 [NK-528]		37.5 ± 11.2 s	5.2 ± 1.4 count/min	43.9 ± 3.0 °
CC[n+]1ccccc1/C=C/c1ccc(N(C)C)cc1 [NK-557]		39.9 ± 5.1 s	6.5 ± 1.1 count/min	45.1 ± 3.7 °
COc1ccc2oc(/C=C/c3ccc(N(C)C)cc3)[n+](C)c2c1 [NK-1516]		42.4 ± 6.3 s	7.1 ± 0.8 count/min	46.5 ± 2.9 °
